Molecules are shown by their SMILES.

The source of these data is patent publication US10603261B2, “Composition for enhancing hair fiber properties” (The Procter & Gamble Company, priority 2014, dated 2020).

The assay is described as follows: Combing force after leave-on hair treatment using neat material. The note with it: hair treated with neat material; 1 and 5 washes. The text has this:
This double combing apparatus is attached to an Instron Model 5564. The switch is combed 5 times with a fine-tooth comb and hanged onto the Instron load cell. Then, the hair switch is placed in the double comb apparatus. The Instron pulls the hair vertically at a rate of 10 mm/min until the hair switch clears the final comb. The peak force as the switch passes through the top comb is reported.
The treatment is repeated to two additional switches. The treated hair switches are allowed to rest for 24 hours under controlled temperature and relative humidity conditions (27° C. and 50% RH). After this time period, each hair switch is washed with a clarifying shampoo (see shampoo washing protocol below) and allowed to air dry for 24 hours under controlled temperature and relative humidity conditions (27° C. and 50% RH). The combing force is measured for each switch and an average for the three switches is calculated. […] Linoleic acid • b.
Each application consists of adding shampoo to the hair, milking for 30 seconds followed by rinsing for 30 seconds. Shampoo is then reapplied (0.1 g/g), milked for 30 seconds and rinsed for 30 seconds.

As for `CCCCCCCC/C=C\CCCCCCCC(=O)O` [Oleic acid], the “combability (in words)” value is “better combability”.
